Data on five compounds can be found in patent US3954865A, “N-cycloalkyl substituted-10,11-dihydro 5H-dibenzo[a,d] cyclohepten-5-imines” (E. I. Du Pont de Nemours and Company, priority 1974, dated 1976).

Some results are limits rather than exact numbers.

In experiment [1] the test system is uptake of dopamine by the corpus striatum. The experiment is described as follows: inhibition of uptake of labelled dopamine by rat corpus striatum homogenate (procedure of Coyle et al). The class given is biochemical. To be noted: for Ratio Hypothalmus/Striatum: ratio of ID50 values, hypothalamus over striatum. As for the experimental part:
(§1) Many compounds which are active in the central nervous system of mammals appear to inhibit the uptake of catecholamines by mammalian brain tissues. […] The compounds of the invention have the ability of selectively inhibiting the uptake of dopamine by the corpus striatum. This ability was measured by a test procedure following that of Coyle et al supra. Rat brain slices from the corpus striatum and hypothalamus are separately homogenized and incubated with predetermined amounts of labelled norepinephrine or dopamine and a compound of the invention. After a suitable incubation period the amount of labelled catecholamine taken up by the brain homogenate is determined.

In experiment [2] the test system is uptake of norepinephrine by the hypothalamus. The experiment is described as follows: inhibition of uptake of labelled norepinephrine by rat hypothalamus homogenate (procedure of Coyle et al). The class given is biochemical. As for the experimental part:
as §1

On to `CC(C)=C1CC(CN=C2c3ccccc3CCc3ccccc32)C1` (stereo not shown) [Example 5, N-(3-Isopropylidenecyclobutylmethyl)-10,11-dihydro[a,d]cyclohepten-5-imine], for which the “Ratio Hypothalmus/Striatum” value in experiment [1] is 1.25. Regarding `Clc1ccc2c(c1)C(=NCC1CC1)c1ccccc1CC2` [Example 4, 3-Chloro-N-cyclopropylmethyl-10,11-dihydro-5H-dibenzocyclohepten-5-imine], in experiment [1], the “Ratio Hypothalmus/Striatum” value came to 2. As for `c1ccc2c(c1)CCc1ccccc1C2=NCC1CC1` [Example 1, N-cyclopropylmethyl-10,11-dihydro-5H-dibenzo[a,d]cyclohepten-5-imine], the “inhibiting the uptake of dopamine, selectivity in words” value in experiment [1] (dopamine versus norepinephrine uptake) is given as “almost exclusive effect inhibiting the uptake of dopamine”. The “Ratio Hypothalmus/Striatum” value in experiment [1] turned out to be 20. In addition, the “inhibiting the uptake of norepinephrine, in words” value in experiment [2] is reported as “without significantly inhibiting the uptake of norepinephrine”. For `c1ccc2c(c1)CCc1ccccc1C2=NC1CC1` [Example 2, N-Cyclopropyl-10,11-dihydro-5H-dibenzo[a,d]cyclohepten-5-imine], the “Ratio Hypothalmus/Striatum” value in experiment [1] is on record as greater than 6. Turning to `CC(C)N=C1c2ccccc2CCc2ccccc21` [Isopropyl, reference compound], the “Ratio Hypothalmus/Striatum” value in experiment [1] came out at 0.25.
